Experimental data published in ChEMBL document CHEMBL3596094, “Nucleoside Diphosphate Prodrugs: Nonsymmetric DiPPro-Nucleotides” (J Med Chem, 2015).

Assays:
[1] = Cytotoxicity against human CEM/0 cells assessed as reduction in cell proliferation incubated for 4 to 5 days
[2] = test system: Human immunodeficiency virus 2; test: Antiviral activity against HIV2 ROD infected in human CEM/0 cells assessed as reduction in virus-induced giant cell formation incubated for 4 to 5 days; format: functional, organism-based; settings: Human immunodeficiency virus 2, ISOLATE ROD, CCRF-CEM
[3] = test system: Human immunodeficiency virus 2; test: Antiviral activity against HIV2 ROD infected in human thymidine kinase deficient CEM/TK- cells assessed as reduction in virus-induced giant cell formation incubated for 4 to 5 days; format: functional, organism-based; settings: Human immunodeficiency virus 2, ISOLATE ROD
[4] = test system: Human immunodeficiency virus 1; test: Antiviral activity against HIV1 3B infected in human CEM/0 cells assessed as reduction in virus-induced giant cell formation incubated for 4 to 5 days; format: functional, organism-based; settings: Human immunodeficiency virus 1, 3B, CCRF-CEM
[5] = Half life in human CEM/0 cell extracts incubated at 37 degC by RP-18-HPLC method; format: ADME, CCRF-CEM
[6] = Half life in presence of pig liver esterase assessed as half life for DiPPro-NDP by RP-18-HPLC method; format: ADME
[7] = Half life in pH 7.3 PBS incubated at 37 degC by RP-18-HPLC method; format: physicochemical
[8] = Half life in presence of pig liver esterase assessed as half life for hydrolysis R1 intermediate by RP-18-HPLC method; format: ADME; settings: isolated protein

Row | Structure (SMILES) | CC50 ([1]; ccrf-cem) | EC50 [2] | EC50 [3] | EC50 [4] | half-life [5] | CC50 ([1]; CEM/0 cells) | half-life [6] | half-life [7] | t1/2 [8]
1 | Cc1cn([C@H]2C=C[C@@H](CO)O2)c(=O)[nH]c1=O [STAVUDINE] | 79 µM | 2.23 µM | 150 µM | 0.52 µM | – | – | – | – | –
2 | CCCCCCCCCC(=O)Oc1ccc(COP(=O)(O)OP(=O)(O)OC[C@H]2O[C@@H](n3cc(C)c(=O)[nH]c3=O)C[C@@H]2N=[N+]=[N-])cc1 | – | – | – | – | 0.833 h | – | – | – | –
3 | CCCCCCCCCCCC(=O)Oc1ccc(COP(=O)(O)OP(=O)(O)OC[C@H]2O[C@@H](n3cc(C)c(=O)[nH]c3=O)C[C@@H]2N=[N+]=[N-])cc1 | – | – | – | – | 1.05 h | – | – | – | –
4 | Cc1cn([C@H]2C[C@H](N=[N+]=[N-])[C@@H](CO)O2)c(=O)[nH]c1=O [ZIDOVUDINE] | – | 0.49 µM | > 250 µM | 0.044 µM | – | > 250 µM | – | – | –
5 | CCCCCCCC(=O)Oc1ccc(COP(=O)(OCc2ccc(OC(C)=O)cc2)OP(=O)(O)OC[C@H]2O[C@@H](n3cc(C)c(=O)[nH]c3=O)C[C@@H]2N=[N+]=[N-])cc1.N (stereo partly specified) | – | 0.16 µM | > 10 µM | 0.042 µM | 0.02 h | 29 µM | 12.6 s | 33 h | –
6 | CCCCCCCC(=O)Oc1ccc(COP(=O)(OCc2ccc(OC(=O)CCCC)cc2)OP(=O)(O)OC[C@@H]2C=C[C@H](n3cc(C)c(=O)[nH]c3=O)O2)cc1.N (stereo partly specified) | – | 1.47 µM | 6.31 µM | 0.33 µM | 0.71 h | 66 µM | – | 36 h | –
7 | CCCCCCCC(=O)Oc1ccc(COP(=O)(O)OP(=O)(O)OC[C@H]2O[C@@H](n3cc(C)c(=O)[nH]c3=O)C[C@@H]2N=[N+]=[N-])cc1 | – | – | – | – | 1.65 h | – | – | – | –
8 | CCCCC(=O)Oc1ccc(COP(=O)(OCc2ccc(OC(=O)c3ccc(C(F)(F)F)cc3)cc2)OP(=O)(O)OC[C@H]2O[C@@H](n3cc(C)c(=O)[nH]c3=O)C[C@@H]2N=[N+]=[N-])cc1.N (stereo partly specified) | – | 0.06 µM | > 10 µM | 0.036 µM | 0.83 h | 58 µM | – | 19 h | –
9 | CCCCCCCCCC(=O)Oc1ccc(COP(=O)(OCc2ccc(OC(C)=O)cc2)OP(=O)(O)OC[C@@H]2C=C[C@H](n3cc(C)c(=O)[nH]c3=O)O2)cc1.N (stereo partly specified) | – | 1.36 µM | 2.32 µM | 0.33 µM | 0.04 h | 15 µM | 8.4 s | 40 h | –
10 | CCCCCCCCCC(=O)Oc1ccc(COP(=O)(OCc2ccc(OC(=O)CCCCCCCCC)cc2)OP(=O)(O)OC[C@H]2O[C@@H](n3cc(C)c(=O)[nH]c3=O)C[C@@H]2N=[N+]=[N-])cc1 | – | 0.23 µM | 1.3 µM | 0.026 µM | – | 38 µM | – | – | –
11 | CCCCC(=O)Oc1ccc(COP(=O)(OCc2ccc(OC(=O)c3ccc(C)cc3)cc2)OP(=O)(O)OC[C@@H]2C=C[C@H](n3cc(C)c(=O)[nH]c3=O)O2)cc1.N (stereo partly specified) | – | 1.45 µM | 10 µM | 0.3 µM | 0.96 h | 14 µM | – | 50 h | –
12 | CCCCCCCCCC(=O)Oc1ccc(COP(=O)(OCc2ccc(OC(=O)CCCC)cc2)OP(=O)(O)OC[C@@H]2C=C[C@H](n3cc(C)c(=O)[nH]c3=O)O2)cc1.N (stereo partly specified) | – | 1.17 µM | 0.83 µM | 0.36 µM | 1.05 h | 20 µM | 15.6 s | 40 h | –
13 | CCCCCCCCCCCC(=O)Oc1ccc(COP(=O)(OCc2ccc(OC(C)=O)cc2)OP(=O)(O)OC[C@H]2O[C@@H](n3cc(C)c(=O)[nH]c3=O)C[C@@H]2N=[N+]=[N-])cc1.N (stereo partly specified) | – | 0.08 µM | 10 µM | 0.042 µM | 0.11 h | 18 µM | 11.4 s | 32 h | 0.467 h
14 | CCCCCCCCCC(=O)Oc1ccc(COP(=O)(O)OP(=O)(O)OC[C@@H]2C=C[C@H](n3cc(C)c(=O)[nH]c3=O)O2)cc1 | – | – | – | – | 0.833 h | – | – | – | –
15 | Cc1ccc(C(=O)Oc2ccc(COP(=O)(O)OP(=O)(O)OC[C@@H]3C=C[C@H](n4cc(C)c(=O)[nH]c4=O)O3)cc2)cc1 | – | – | – | – | 14.5 h | – | – | – | –
16 | CCCCCCCCCCCC(=O)Oc1ccc(COP(=O)(OCc2ccc(OC(=O)CCCC)cc2)OP(=O)(O)OC[C@H]2O[C@@H](n3cc(C)c(=O)[nH]c3=O)C[C@@H]2N=[N+]=[N-])cc1.N (stereo partly specified) | – | 0.06 µM | 8.16 µM | 0.013 µM | 1.65 h | 36 µM | 72 s | 63 h | 0.633 h
17 | CCCCCCCC(=O)Oc1ccc(COP(=O)(OCc2ccc(OC(C)=O)cc2)OP(=O)(O)OC[C@@H]2C=C[C@H](n3cc(C)c(=O)[nH]c3=O)O2)cc1.N (stereo partly specified) | – | 1.05 µM | 6.31 µM | 0.33 µM | 0.04 h | 33 µM | – | 36 h | –
18 | Cc1cn([C@H]2C=C[C@@H](COP(=O)(O)OP(=O)(O)OCc3ccc(OC(=O)c4ccc(C(F)(F)F)cc4)cc3)O2)c(=O)[nH]c1=O | – | – | – | – | 11.5 h | – | – | – | –
19 | CC(=O)Oc1ccc(COP(=O)(OCc2ccc(OC(=O)c3ccc(C)cc3)cc2)OP(=O)(O)OC[C@@H]2C=C[C@H](n3cc(C)c(=O)[nH]c3=O)O2)cc1.N (stereo partly specified) | – | 1.47 µM | 10 µM | 0.29 µM | 0.04 h | 11 µM | – | 58 h | –
20 | CC(=O)Oc1ccc(COP(=O)(OCc2ccc(OC(=O)c3ccc(C(F)(F)F)cc3)cc2)OP(=O)(O)OC[C@H]2O[C@@H](n3cc(C)c(=O)[nH]c3=O)C[C@@H]2N=[N+]=[N-])cc1.N (stereo partly specified) | – | 0.06 µM | > 10 µM | 0.012 µM | 0.04 h | 100 µM | – | 13 h | –
21 | CCCCCCCC(=O)Oc1ccc(COP(=O)(O)OP(=O)(O)OC[C@@H]2C=C[C@H](n3cc(C)c(=O)[nH]c3=O)O2)cc1 | – | – | – | – | 1.65 h | – | – | – | –
22 | CCCCCCCCCCCC(=O)Oc1ccc(COP(=O)(O)OP(=O)(O)OC[C@@H]2C=C[C@H](n3cc(C)c(=O)[nH]c3=O)O2)cc1 | – | – | – | – | 1.15 h | – | – | – | –
23 | Cc1cn([C@H]2C[C@H](N=[N+]=[N-])[C@@H](COP(=O)(O)OP(=O)(O)OCc3ccc(OC(=O)c4ccc(C(F)(F)F)cc4)cc3)O2)c(=O)[nH]c1=O | – | – | – | – | 3.83 h | – | – | – | –
24 | CCCCCCCCCCCC(=O)Oc1ccc(COP(=O)(OCc2ccc(OC(C)=O)cc2)OP(=O)(O)OC[C@@H]2C=C[C@H](n3cc(C)c(=O)[nH]c3=O)O2)cc1.N (stereo partly specified) | – | 0.28 µM | 1.77 µM | 0.29 µM | 0.16 h | 26 µM | – | 48 h | –
25 | CCCCC(=O)Oc1ccc(COP(=O)(OCc2ccc(OC(=O)c3ccc(C(F)(F)F)cc3)cc2)OP(=O)(O)OC[C@@H]2C=C[C@H](n3cc(C)c(=O)[nH]c3=O)O2)cc1.N (stereo partly specified) | – | 0.72 µM | > 10 µM | 0.4 µM | 0.88 h | 37 µM | – | 15 h | –
26 | CC(=O)Oc1ccc(COP(=O)(OCc2ccc(OC(=O)c3ccc(C(F)(F)F)cc3)cc2)OP(=O)(O)OC[C@@H]2C=C[C@H](n3cc(C)c(=O)[nH]c3=O)O2)cc1.N (stereo partly specified) | – | 1.38 µM | > 10 µM | 0.72 µM | 0.03 h | 51 µM | – | 15 h | –
27 | CCCCCCCC(=O)Oc1ccc(COP(=O)(OCc2ccc(OC(=O)CCCC)cc2)OP(=O)(O)OC[C@H]2O[C@@H](n3cc(C)c(=O)[nH]c3=O)C[C@@H]2N=[N+]=[N-])cc1.N (stereo partly specified) | – | 0.07 µM | > 10 µM | 0.036 µM | 0.83 h | 73 µM | 16.2 s | 46 h | 0.25 h
28 | CCCCCCCCCCCC(=O)Oc1ccc(COP(=O)(OCc2ccc(OC(=O)CCCC)cc2)OP(=O)(O)OC[C@@H]2C=C[C@H](n3cc(C)c(=O)[nH]c3=O)O2)cc1.N (stereo partly specified) | – | 0.28 µM | 0.13 µM | 0.1 µM | 1.91 h | 30 µM | – | 52 h | –
